# Data as given in patent US7396837B2, “Antitumoral analogs of lamellarins” (Pharma Mar, S.A.U., priority 2002, dated 2008).
# Like-named read-outs stand apart in the source and are kept apart here.
# Assays:
# Assay type in all cases: cell-based
# [1] = test system: SK-BR-3; experiment: SRB colorimetric cell growth inhibition assay, SK-BR-3; settings: Homo sapiens, SK-BR-3, SK-BR-3; for GI50: GI=growth inhibition, read-out: GI50 SK-BR-3; for CC50: LC=cell killing (cytotoxic effect), read-out: LC50 SK-BR-3; for IC (TGI): TGI=total growth inhibition (cytostatic effect), read-out: TGI SK-BR-3
# In short: (§1)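 After uninterrupted treatment, cultures are fixed and stained with sulforhodamine B, and absorbance reflects cell growth and viability. Each value represents the average of triplicate wells with SD.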
# [2] = test system: IGROV-ET; experiment: SRB colorimetric cell growth inhibition assay, IGROV-ET (ET-743 resistant); settings: Homo sapiens, IGROV-ET; for GI50: GI=growth inhibition, read-out: GI50 IGROV-ET; for CC50: LC=cell killing (cytotoxic effect), read-out: LC50 IGROV-ET; for IC (TGI): TGI=total growth inhibition (cytostatic effect), read-out: TGI IGROV-ET
# In short: as §1
# [3] = test system: DU-145; experiment: SRB colorimetric cell growth inhibition assay, DU-145; settings: Homo sapiens, DU-145, DU-145; for GI50: GI=growth inhibition, read-out: GI50 DU-145; for CC50: LC=cell killing (cytotoxic effect), read-out: LC50 DU-145; for IC (TGI): TGI=total growth inhibition (cytostatic effect), read-out: TGI DU-145
# In short: as §1
# [4] = test system: LoVo; experiment: SRB colorimetric cell growth inhibition assay, LoVo; settings: Homo sapiens, LoVo; for GI50: GI=growth inhibition, read-out: GI50 LOVO; for CC50: read-out: LC50 LOVO; for IC (TGI): read-out: TGI LOVO
# In short: as §1
# [5] = test system: HT-29; experiment: SRB colorimetric cell growth inhibition assay, HT-29; settings: Homo sapiens, HT-29, HT-29; for GI50: GI=growth inhibition, read-out: GI50 HT-29; for CC50: read-out: LC50 HT-29; for IC (TGI): read-out: TGI HT-29
# In short: as §1
# [6] = test system: H-MEC-1; experiment: SRB colorimetric cell growth inhibition assay, H-MEC-1; settings: Homo sapiens, HMEC-1, H-MEC-1; for GI50: GI=growth inhibition; for IC (TGI): TGI=total growth inhibition (cytostatic effect), read-out: TGI H-MEC-1
# In short: (§2)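 SRB colorimetric readout of cell growth/viability in 96-well format. Means ± SD from triplicate wells; GI (growth inhibition), TGI (total growth inhibition, cytostatic) and LC (cell killing, cytotoxic) parameters derived.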
# [7] = as above; settings: human, H-MEC-1 cells, H-MEC-1; LC=cell killing (cytotoxic effect); read-out: LC50 H-MEC-1
# In short: as §2
# [8] = test system: LoVo-Dox; experiment: SRB colorimetric cell growth inhibition assay, LoVo-Dox (MDR); settings: Homo sapiens, LOVO-DOX; for GI50: GI=growth inhibition, read-out: GI50 LOVO-DOX; for CC50: read-out: LC50 LOVO-DOX; for IC (TGI): read-out: TGI LOVO-DOX
# In short: as §1
# [9] = test system: PANC-1; experiment: SRB colorimetric cell growth inhibition assay, PANC-1; settings: Homo sapiens, PANC-1, PANC-1; for GI50: GI=growth inhibition, read-out: GI50 PANC-1; for CC50: read-out: LC50 PANC-1; for IC (TGI): read-out: TGI PANC-1
# In short: as §1
# [10] = test system: LNCaP; experiment: SRB colorimetric cell growth inhibition assay, LNCaP; settings: Homo sapiens, LNCaP, LN-caP; for GI50: GI=growth inhibition, read-out: GI50 LN-caP; for CC50: LC=cell killing (cytotoxic effect), read-out: LC50 LN-caP; for IC (TGI): TGI=total growth inhibition (cytostatic effect), read-out: TGI LN-caP
# In short: as §1
# [11] = test system: K-562; experiment: SRB colorimetric cell growth inhibition assay, K-562; settings: Homo sapiens, K562, K-562; for GI50: GI=growth inhibition, read-out: GI50 K-562; for CC50: read-out: LC50 K-562; for IC (TGI): read-out: TGI K-562
# In short: as §1
# [12] = test system: IGROV; experiment: SRB colorimetric cell growth inhibition assay, IGROV; settings: Homo sapiens, IGROV; for GI50: GI=growth inhibition, read-out: GI50 IGROV; for CC50: LC=cell killing (cytotoxic effect), read-out: LC50 IGROV; for IC (TGI): TGI=total growth inhibition (cytostatic effect), read-out: TGI IGROV
# In short: as §1
# [13] = test system: SK-MEL-28; experiment: SRB colorimetric cell growth inhibition assay, SK-MEL-28; settings: Homo sapiens, SK-MEL-28, MEL-28; for GI50: GI=growth inhibition, read-out: GI50 MEL-28; for CC50: LC=cell killing (cytotoxic effect), read-out: LC50 MEL-28; for IC (TGI): TGI=total growth inhibition (cytostatic effect), read-out: TGI MEL-28
# In short: as §1
# [14] = test system: SKOV-3; experiment: SRB colorimetric cell growth inhibition assay, SKOV-3; settings: Homo sapiens; for GI50: SK-OV-3, SKOV-3, GI=growth inhibition, read-out: GI50 SKOV-3; for CC50 / IC (TGI): SK-OV-3, SKOV-3; for CC50: LC=cell killing (cytotoxic effect), read-out: LC50 SKOV-3; for IC (TGI): TGI=total growth inhibition (cytostatic effect), read-out: TGI SKOV-3
# In short: as §2
# [15] = test system: A-549; experiment: SRB colorimetric cell growth inhibition assay, A-549; settings: Homo sapiens, A549, A-549; for GI50: GI=growth inhibition, read-out: GI50 A-549; for CC50: read-out: LC50 A-549; for IC (TGI): read-out: TGI A-549
# In short: as §1
# [16] = LC=cell killing (cytotoxic effect)
# [17] = TGI=total growth inhibition (cytostatic effect)
# [18] = cell killing (cytotoxic effect)
# [19] = total growth inhibition (cytostatic effect)
smiles,measurement,setting,value
COc1cc2c(cc1OC)-c1c(-c3ccc(OC(=O)[C@H](Cc4ccccc4)NC(=O)OC(C)(C)C)c(OC)c3)c3c4cc(OC)c(OC(=O)[C@H](Cc5ccccc5)NC(=O)OC(C)(C)C)cc4oc(=O)c3n1CC2 [Compound 84],GI50,[1],0.46 µM
same,CC50,[1],9.9 µM
same,IC (TGI),[1],0.95 µM
same,GI50,[2],4.26 µM
same,CC50,[2],9.9 µM
same,IC (TGI),[2],8.25 µM
same,GI50,[3],3.41 µM
same,CC50,[3],9.9 µM
same,IC (TGI),[3],8.36 µM
same,GI50,[4],4.48 µM
same,CC50,[4]; [16],9.9 µM
same,IC (TGI),[4]; [17],9.9 µM
same,GI50,[5],2.34 µM
same,CC50,[5]; [16],9.9 µM
same,IC (TGI),[5]; [17],9.9 µM
same,GI50,[6],0.682 µM
same,IC (TGI),[6],1.86 µM
same,CC50,[7],5.96 µM
same,GI50,[8],9.9 µM
same,CC50,[8]; [16],9.9 µM
same,IC (TGI),[8]; [17],9.9 µM
same,GI50,[9],0.501 µM
same,CC50,[9]; [16],9.9 µM
same,IC (TGI),[9]; [17],5.47 µM
same,GI50,[10],0.71 µM
same,CC50,[10],5.21 µM
same,IC (TGI),[10],2.01 µM
same,GI50,[11],0.731 µM
same,CC50,[11]; [16],9.9 µM
same,IC (TGI),[11]; [17],3.3 µM
same,GI50,[12],2.41 µM
same,CC50,[12],9.9 µM
same,IC (TGI),[12],6.28 µM
same,GI50,[13],2.07 µM
same,CC50,[13],7.21 µM
same,IC (TGI),[13],3.86 µM
same,GI50,[14],4.58 µM
same,CC50,[14],9.9 µM
same,IC (TGI),[14],9.9 µM
same,GI50,[15],2.66 µM
same,CC50,[15]; [16],9.03 µM
same,IC (TGI),[15]; [17],4.91 µM
COc1cc2c(cc1OC)-c1c(-c3ccc(OS(C)(=O)=O)c(OC)c3)c3c4cc(OC)c(OS(C)(=O)=O)cc4oc(=O)c3n1CC2 [Compound 92],GI50,[1],4.35 µM
same,CC50,[1],14.9 µM
same,IC (TGI),[1],11.6 µM
same,GI50,[2],6.85 µM
same,CC50,[2],14.9 µM
same,IC (TGI),[2],14.9 µM
same,GI50,[3],14.9 µM
same,CC50,[3],14.9 µM
same,IC (TGI),[3],14.9 µM
same,GI50,[4],7.52 µM
same,CC50,[4]; [16],14.9 µM
same,IC (TGI),[4]; [17],14.9 µM
same,GI50,[5],14.9 µM
same,CC50,[5]; [16],14.9 µM
same,IC (TGI),[5]; [17],14.9 µM
same,GI50,[6],14.2 µM
same,IC (TGI),[6],14.9 µM
same,CC50,[7],14.9 µM
same,GI50,[8],2.14 µM
same,CC50,[8]; [16],14.9 µM
same,IC (TGI),[8]; [17],5.96 µM
same,GI50,[9],5.42 µM
same,CC50,[9]; [16],14.9 µM
same,IC (TGI),[9]; [17],14.9 µM
same,GI50,[10],0.167 µM
same,CC50,[10],5.09 µM
same,IC (TGI),[10],0.71 µM
same,GI50,[11],2.23 µM
same,CC50,[11]; [16],14.9 µM
same,IC (TGI),[11]; [17],13.8 µM
same,GI50,[12],3.13 µM
same,CC50,[12],14.1 µM
same,IC (TGI),[12],6.64 µM
same,GI50,[13],4.75 µM
same,CC50,[13],14.9 µM
same,IC (TGI),[13],10.1 µM
same,GI50,[14],7.61 µM
same,CC50,[14],14.9 µM
same,IC (TGI),[14],14.9 µM
same,GI50,[15],14.9 µM
same,CC50,[15]; [16],14.9 µM
same,IC (TGI),[15]; [17],14.9 µM
COc1cc(-c2c3n(c4c(=O)oc5cc(OC(=O)c6cc(F)c(F)c(F)c6F)c(OC)cc5c24)CCc2c-3cc(OC)c(OC)c2OC(=O)c2cc(F)c(F)c(F)c2F)ccc1OC(=O)c1cc(F)c(F)c(F)c1F [Compound 99],GI50,[1],9.44 µM
same,CC50,[1],9.44 µM
same,IC (TGI),[1],9.44 µM
same,GI50,[2],9.44 µM
same,CC50,[2],9.44 µM
same,IC (TGI),[2],9.44 µM
same,GI50,[3],9.44 µM
same,CC50,[3],9.44 µM
same,IC (TGI),[3],9.44 µM
same,GI50,[4],9.44 µM
same,CC50,[4]; [18],9.44 µM
same,IC (TGI),[4]; [19],9.44 µM
same,GI50,[5],9.44 µM
same,CC50,[5]; [18],9.44 µM
same,IC (TGI),[5]; [19],9.44 µM
same,GI50,[6],4.06 µM
same,IC (TGI),[6],5.48 µM
same,CC50,[7],7.42 µM
same,GI50,[8],9.44 µM
same,CC50,[8]; [18],9.44 µM
same,IC (TGI),[8]; [19],9.44 µM
same,GI50,[9],9.44 µM
same,CC50,[9]; [18],9.44 µM
same,IC (TGI),[9]; [19],9.44 µM
same,GI50,[10],4.46 µM
same,CC50,[10],9.44 µM
same,IC (TGI),[10],8.19 µM
same,GI50,[11],0.972 µM
same,CC50,[11]; [18],2.26 µM
same,IC (TGI),[11]; [19],1.48 µM
same,GI50,[12],3.07 µM
same,CC50,[12],9.44 µM
same,IC (TGI),[12],9.44 µM
same,GI50,[13],9.44 µM
same,CC50,[13],9.44 µM
same,IC (TGI),[13],9.44 µM
same,GI50,[14],9.44 µM
same,CC50,[14],9.44 µM
same,IC (TGI),[14],9.44 µM
same,GI50,[15],9.44 µM
same,CC50,[15]; [18],9.44 µM
same,IC (TGI),[15]; [19],9.44 µM
COc1cc2c(cc1OC)-c1c(-c3ccc(OC(=O)[C@H](C)N)c(OC)c3)c3c4cc(OC)c(OC(=O)[C@H](C)N)cc4oc(=O)c3n1CC2 [Compound 63],GI50,[1],1.57 µM
same,CC50,[1],14.7 µM
same,IC (TGI),[1],4.8 µM
same,GI50,[2],0.64 µM
same,CC50,[2],15.2 µM
same,IC (TGI),[2],2.86 µM
same,GI50,[3],2.2 µM
same,CC50,[3],11.7 µM
same,IC (TGI),[3],5.08 µM
same,GI50,[4],1.46 µM
same,CC50,[4]; [16],9.11 µM
same,IC (TGI),[4]; [17],3.68 µM
same,GI50,[5],2.92 µM
same,CC50,[5]; [16],11.1 µM
same,IC (TGI),[5]; [17],5.7 µM
same,GI50,[6],2.72 µM
same,IC (TGI),[6],5.25 µM
same,CC50,[7],10.1 µM
same,GI50,[8],0.909 µM
same,CC50,[8]; [16],9.85 µM
same,IC (TGI),[8]; [17],2.95 µM
same,GI50,[9],1.93 µM
same,CC50,[9]; [16],13.2 µM
same,IC (TGI),[9]; [17],5.05 µM
same,GI50,[10],1.13 µM
same,CC50,[10],9.61 µM
same,IC (TGI),[10],3.47 µM
same,GI50,[11],2.9 µM
same,CC50,[11]; [16],15.2 µM
same,IC (TGI),[11]; [17],6.75 µM
same,GI50,[12],0.975 µM
same,CC50,[12],14.6 µM
same,IC (TGI),[12],3.86 µM
same,GI50,[13],2.34 µM
same,CC50,[13],10.1 µM
same,IC (TGI),[13],4.87 µM
same,GI50,[14],3.06 µM
same,CC50,[14],11.1 µM
same,IC (TGI),[14],5.84 µM
same,GI50,[15],2.84 µM
same,CC50,[15]; [16],10.9 µM
same,IC (TGI),[15]; [17],5.57 µM
